Where “and” joins values, the source holds several entries; their conditions need not be identical. Identical values can stand only once.
Legend:
FlaA1 [1] = biological target: T1, FlaA1 (Helicobacter pylori, UniProt O25511); experiment: Substrate specificity of FlaA1 (catalysis with related sugar-nucleotides); assay type: biochemical
T1 construct: hexahistidine tag (N); made in house; host or cells: E. coli BL21(DE3)pLysS (pET23 derivative)

C4 epimerase WbpP = C4 epimerase WbpP (Pseudomonas aeruginosa, UniProt Q8KN66); settings: Creuzenet et al. 2000; cited from earlier work
Chain of C4 epimerase WbpP (Q8KN66 whole entry): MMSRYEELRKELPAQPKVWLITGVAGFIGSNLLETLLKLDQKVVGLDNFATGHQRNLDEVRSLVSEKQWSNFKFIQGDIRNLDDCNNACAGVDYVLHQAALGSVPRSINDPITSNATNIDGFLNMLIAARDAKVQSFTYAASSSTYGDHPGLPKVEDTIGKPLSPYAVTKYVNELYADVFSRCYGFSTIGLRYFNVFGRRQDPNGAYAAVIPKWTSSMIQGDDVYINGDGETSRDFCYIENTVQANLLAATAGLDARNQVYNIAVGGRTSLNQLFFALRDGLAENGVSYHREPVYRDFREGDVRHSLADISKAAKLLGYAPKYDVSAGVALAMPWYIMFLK

FlaA1 [2] = biological target: T1, FlaA1; experiment: DMAB assay: enzymatic conversion of UDP-GlcNAc and UDP-GalNAc by FlaA1; assay type: biochemical; settings: incubation with FlaA1, 37° C., 20 mM Tris pH 7, 1 mM NAD+
Experimental: Reactions were performed with a total reaction volume of 35 μl at 37° C. in 20 mM Tris pH 7 in the presence of 1.5 mM substrate and 1 mM NAD^+. The reactions were stopped by acid hydrolysis of the UDP moiety of the substrate. For this purpose, the samples were acidified to pH 2 by addition of 7 μl of HCl 1 N, boiled for 6 min, and neutralised by addition of 7 μl of NaOH 1 N. The spectrophotometric quantification of GalNAc and GlcNAc using DMAB was performed as described by Creuzenet et al. 2000. Briefly summarized, 100 μl of 0.2 M sodium tetraborate pH 9.1 were added to 50 μl of quenched and neutralised enzymatic reactions and boiled immediately for 3 min. 40 μl of this mixture were transferred to a microtitration plate and 200 μl of DMAB reagent (1% in glacial acetic acid/HCl 99/1 v/v) were added. After incubation for 30 min at 37° C., the OD595 nm was recorded using a microplate reader. The assay was done in duplicate for each reaction tested. Standard curves were prepared using UDP-GlcNAc and UDP-GalNAc that were subjected to acid hydrolysis in the same conditions as described above.

FlaA1 [3] = biological target: T1, FlaA1; experiment: Capillary electrophoresis analysis of reaction products and kinetic parameters of FlaA1; assay type: biochemical; settings: for reaction products identified by capillary electrophoresis: sugar-nucleotide used as substrate of FlaA1
Experimental: The same reactions as above were prepared for capillary analysis using varying amounts of enzyme (440 or 54 ng) and 1 mM NAD^+ or not. The reaction mix was incubated for different reaction times. The specific conditions are indicated above. After incubation at 37° C. for the required amount of time, the reactions were quenched by boiling the sample for 6 min. Time course studies were performed with final sugar-nucleotide concentrations of 0.1 and 1.5 mM without NAD^+. Samples were quenched every 15 minutes for 2 h. […] Reactions were also performed using varying buffers such as 20 mM sodium phosphate or bis-tris-propane at pH 7, or 20 mM sodium acetate pH 6.5 and processed for CE analysis as described above.
Capillary electrophoresis (CE) analysis were performed using a P/ACE 5000 system (Beckman, Fullerton, Calif.) with UV detection as described before (Creuzenet et al. 2000). Briefly summarised, the running buffer was 25 mM sodium tetraborate pH 9.4. The capillary was bare silica 75 μm×57 cm, with a detector at 50 cm. The capillary was conditioned before each run by washing with 0.2 M NaOH for 2 min, water for 2 min, and running buffer for 2 min. Samples were introduced by pressure injection for 4 s and the separation was performed at 22 kV. Peak integration was done using the Beckman P/ACE Station software. Kinetic parameters were calculated by linear regression from Eadie-Hofstee plots.
The same reactions as above were prepared for capillary electrophoresis analysis and were quenched by boiling for 6 minutes without prior acidification. Capillary electrophoresis (CE) analysis was performed as described earlier (Creuzenet et al. 2000).

T1 sequence (O25511 whole entry): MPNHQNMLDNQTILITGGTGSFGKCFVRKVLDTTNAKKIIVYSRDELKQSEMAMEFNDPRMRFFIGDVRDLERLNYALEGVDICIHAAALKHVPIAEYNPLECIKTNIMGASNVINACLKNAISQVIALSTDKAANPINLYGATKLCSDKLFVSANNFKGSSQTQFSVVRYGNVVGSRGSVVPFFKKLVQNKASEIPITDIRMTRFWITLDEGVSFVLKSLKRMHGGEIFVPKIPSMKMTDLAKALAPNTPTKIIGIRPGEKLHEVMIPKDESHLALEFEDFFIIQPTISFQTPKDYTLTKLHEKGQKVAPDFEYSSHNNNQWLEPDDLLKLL

Structure (SMILES) | catalysis by FlaA1 (substrate specificity) (FlaA1 [1]) | Km (C4 epimerase WbpP) | substrate conversion (decrease in OD595nm, DMAB assay) (FlaA1 [2]) | kcat (FlaA1 [3]; pH 7, 37° C., 12.8 pmol enzyme) | Km (FlaA1 [3]; pH 7, 37° C., 440 ng fresh enzyme, no NAD+, 20 min) | Vmax (FlaA1 [3]; pH 7, 37° C., 440 ng fresh enzyme, no NAD+, 20 min, total substrate conversion) | reaction products identified by capillary electrophoresis (FlaA1 [3])
Cc1cn([C@H]2C[C@H](O)[C@@H](COP(=O)(O)OP(=O)(O)OC3O[C@H](CO)[C@@H](O)[C@H](O)[C@H]3O)O2)c(=O)[nH]c1=O (stereo partly drawn) [dTDP-D-glucose] | Absence of catalysis | – | – | – | – | – | –
CC(=O)N[C@H]1[C@@H](OP(=O)(O)OP(=O)(O)OC[C@H]2O[C@@H](n3ccc(=O)[nH]c3=O)[C@H](O)[C@@H]2O)O[C@H](CO)[C@@H](O)[C@@H]1O [UDP-GlcNAc, UDP-N-acetylglucosamine] | – | 220 µM | ≤ 55% | 0.085 s⁻¹ and 0.085 ± 0.0067 s⁻¹ | 159 µM | 0.065 nmol/min and 0.065 ± 0.006 nmol/min | two reaction products were identified
Nc1nc2c(ncn2[C@@H]2O[C@H](COP(=O)(O)OP(=O)(O)O[C@H]3O[C@H](CO)[C@@H](O)[C@H](O)[C@@H]3O)[C@@H](O)[C@H]2O)c(=O)[nH]1 [GDP-mannose] | Absence of catalysis | – | – | – | – | – | –
CC(=O)N[C@H]1[C@@H](OP(=O)(O)OP(=O)(O)OC[C@H]2O[C@@H](n3ccc(=O)[nH]c3=O)[C@H](O)[C@@H]2O)O[C@H](CO)[C@H](O)[C@@H]1O [UDP-GalNAc, UDP-N-acetylgalactosamine] | can not proceed to catalysis | – | < 5% | – | – | – | no reaction products could be identified
